Reference: patent US20070020193A1, “Dronabinol compositions and methods for using same” (priority 2005, published 2007)

What was measured:
healthy subjects [1] = experiment: Example 2: heart rate (telemetry / vital signs); type: in vivo, human; conditions: for placebo-corrected mean heart rate: 1.2 mg; for Mean increase of heart rate above baseline: last day of dosing
Text: For Examples 1 and 2: Heart rate was obtained from the blood pressure recordings or using telemetry.
Absolute values of heart rate and conjunctive congestion scores were used to calculate changes from baseline.
Changes from baseline in conjunctiva congestion and heart rate were compared for all time-points measured, and summarized using descriptive statistics. Subjective ratings were individually tabulated and sorted by treatment group, subject number, and time, and summarized using descriptive statistics. Separate tables were provided to summarize differences between males and females if applicable. Pharmacodynamic assessments were compared with delta-9 THC and 11-OH-THC blood concentrations and summarized using descriptive statistics.

[2] = oral administration, first-pass metabolism; cited from earlier work
healthy subjects [3] = experiment: Example 1: subjective drug ratings and ARCI; type: in vivo, human
Text: The subject responded to each of three questions on a scale of 0 to 100 with 0 meaning no effect/not at all and 100 meaning maximum/very much:
How much of a drug effect or high do you feel?
How much do you like the drug?
How much do you dislike the drug?
The ARCI is a true/false questionnaire developed to specifically measure the subjective effects of drugs which have diverse pharmacological actions. The […] (PCAG), morphine-benzedrine, and lysergic acid diethylamide subgroup scales were used to assess sedation, euphoria, and dysphoria. Questions from the marijuana subscale were also included.
Subjective drug ratings and cognitive measurement scores were presented as absolute values only with separate tables summarizing gender difference and age differences.

[4] = Example 1 single rising dose inhaled delta-9-THC study: plasma pharmacokinetics
Protocol: A randomized, double blind, placebo controlled, three way crossover, single rising dose human clinical study in two sequential groups (Groups I and II) of nine young healthy male subjects (18-45 years of age and body mass index (BMI) of 20-26 kg/m^2) of a metered dose inhalation composition according to one embodiment the present invention was conducted. Each subject received two ascending single doses of inhaled delta-9-THC and one single dose of inhaled placebo according to a three-way crossover balanced incomplete block design. The administered composition is detailed in Table 1. Composition I provides 0.3 mg per actuation, while Composition II provides 1.2 mg per actuation.
Each sequential dose level or period was separated by a washout period of two weeks, during which an interim safety and pharmacokinetic analysis was performed. A third group (Group III) of nine elderly healthy male and female subjects (65-80 years old and BMI 18-30 kg/m^2) was added after completion of the sixth study period to participate in a single treatment period. […] Five dose levels were evaluated: 0.3 mg, 1.2 mg, and 2.4 mg in Group I, 3.6 mg, 7.2 mg, and 9.6 mg in Group II, and 3.6 mg in Group III. Subjects were confined to the study center from the day prior to dosing until the 48 hour blood sample. Subjects returned to the center for 72, 96 and 120 hour pharmacokinetic samples. Various pharmacokinetic and pharmacodynamic measurements and sampling were taken according to the Assessment Flow Charts in FIG. 1 and FIG. 2. Safety was measured by monitoring adverse events, physical examination, clinical laboratory and pulmonary function tests, vital signs, 12 lead ECG, and telemetry.
Safety, pharmacokinetic and pharmacodynamic variables were estimated. Plasma concentrations of delta-9-THC (THC), 11-hydroxy-tetrahydrocanabinol (11-OH-THC) and delta-9-tetrahydrocannbinol-carboxylic acid (THC-COOH) were determined for pharmacokinetic analysis.
Whole blood samples were collected according to the assessment flowchart in EDTA tubes through venepuncture or indwelling catheter. Samples were immediately placed on ice and subsequently centrifuged within 30 minutes at 1,500 g for 10 minutes. Plasma was transferred into a 5 ml screw cap polypropylene tube, stoppered and stored at below minus 20° C. until transfer to the analytical laboratory for analysis. […] The measurement ranges were 0.05-30 ng/ml for delta-9-THC, 0.04-30 ng/ml for 11-OH-THC, and 0.25-10 ng/ml for THC-COOH.
Number of subjects, mean, standard deviation, coefficient variable (%) and geometric mean were calculated for all pharmacokinetic parameters.
For Example 1: A mixed ANOVA model with group and dose fixed effect and subject within group by dose as random effect was performed on the logarithms of the dose normalized pharmacokinetic parameters AUC, AUC0-t and Cmax. The overall treatment effect was tested by conventional F-test with Satterthwaites correction. Dose proportionality was tested using Helmert Contrasts and Reverse Helmert Contrasts. The within and between subject coefficient of variances were calculated from the estimated covariance parameters. Per dose level geometric means with 90% confidence interval were calculated for the dose-normalized values from the least squared means analysis outcomes. The difference between young and elderly subjects was explored using a one-way ANOVA.

healthy subjects [5] = experiment: Example 2: pulmonary function tests; type: in vivo, human
Protocol: Adverse events were recorded based on original descriptions from subject responses to queries. Complete medical histories and physical examinations were conducted. Vital signs were monitored, ECGs were recorded along with pulmonary function tests and laboratory examinations.
Listings of values for each subject were presented with abnormal or out of range values for vital signs, laboratory assays, ECGs, pulmonary function tests, and physical examinations. Descriptive statistics (n, mean, standard deviation (SD), minimum, median, maximum) for all clinical laboratory safety parameters, ECGs, pulmonary function tests, and vital signs were provided. ECGs and physical examinations were to be summarized in shift tables to show changes from baseline between normal and abnormal findings.

[6] = after single dosing, both dose levels

Which results are given for `CCCCCc1cc(O)c2c(c1)OC(C)(C)[C@@H]1CCC(C)=C[C@@H]21` [delta-9-THC, delta-9-tetrahydrocannabinol]?
placebo-corrected mean heart rate (healthy subjects [1]; Day 1): limited and short-lasting increase; placebo-corrected mean heart rate (healthy subjects [1]; Day 12): no increase; duration of placebo-corrected heart rate increase post-dose (healthy subjects [1]; 3.6 mg, Day 1): at least 4 hours; placebo-corrected mean heart rate, maximum increase (healthy subjects [1]; 3.6 mg, after 19 days of dosing, by 10 minutes post-dose): approximately 10 bpm; Mean increase of heart rate above baseline (healthy subjects [1]; Group I (1.2 mg), at 0.5 hours after dosing): ≤ 12 bpm; Mean increase of heart rate above baseline (healthy subjects [1]; Group II (3.6 mg), at 5 minutes after dosing): ≤ 18 bpm; heart rate (summary) (healthy subjects [1]; after single dose inhaled administration): increased in a dose-dependent fashion; duration of effect on heart rate (healthy subjects [1]; [6]): 2 to 4 h; time of maximum effect on heart rate (healthy subjects [1]; [6]): 2 to 5 min; part of an orally administered dose that reaches systemic circulation [2]: 10-20%; dose with maximum 'disliking' (healthy subjects [3]; Group I): 2.4 mg; dose with maximum psychoactivity ('feel the drug' scores) and highest mean 'liking' scores (healthy subjects [3]; Group I): 0.3 mg; dose with maximum 'disliking' scores and maximum 'feel the drug' scores (healthy subjects [3]; Group II): 7.2 mg; dose with maximum 'liking' scores (healthy subjects [3]; Group II): 3.6 mg; subjective drug ratings, three scales (healthy subjects [3]; Group III, 3.6 mg): difference between placebo and 3.6 mg; ARCI MBG, LSD and Amphetamine Scales (healthy subjects [3]; in vivo): No significant results; Cmax and AUC versus dose ([4]; 7.2 and 9.6 mg doses): less than proportional increase; Cmax and AUC versus dose ([4]; Groups I and II, doses from 0.3-3.6 mg): dose-related increase; Cmax ([4]; male, human, plasma, inhaled, 2.4 mg): 23.6 ng/mL; FEV1, lowest result during the study (healthy subjects [5]; one subject with below-normal pre-dose FEV1, Day 11, after six days of dosing with 1.2 mg): 63%; FEV1 at the follow-up visit (healthy subjects [5]; same single subject, 1.2 mg): 58 % of predicted
